≈ marks a conversion by molar mass, not a printed value. Where a SMILES comes first, the peptide text is derived from it. [ ]: non-standard residue; d: D form. The star is where a group is joined. Phe(4-tBu) = CC(C)(C)c1ccc(C[C@H](N)C(=O)O)cc1; tBuAla = CC(C)(C)C[C@H](N)C(=O)O; Tle = CC(C)(C)[C@H](N)C(=O)O; OBn = c1ccc(CO*)cc1
How the values were obtained:
[1] = tested on: Escherichia coli ATCC 25922; assay: microbe, parasite or virus in culture; settings: ATCC25922, read-out: MIC E. coli
[2] = tested on: Staphylococcus aureus ATCC 25923; assay: microbe, parasite or virus in culture; settings: ATCC25923, read-out: MIC S. aureus
[3] = tested on: Escherichia coli ATCC 25922; settings: ATCC 25922
[4] = tested on: Staphylococcus aureus ATCC 25923; settings: ATCC 25923
[5] = tested on: MRSA ATCC 33591; settings: ATCC 33591
Experimental: (§1) All strains were stored at −70° C. […] All assays were performed in duplicate.

[6] = tested on: MRSE ATCC 27626; settings: ATCC 27626
Experimental: as §1

[7] = tested on: P. aeruginosa
Experimental: as §1

[8] = tested on: fresh human red blood cells; format: cell-based
Experimental: The hemolytic activities of the peptides were determined using fresh human red blood cells. 8 ml blood was taken from a healthy person. 4 ml blood was transferred to a polycarbonate tube containing heparin to a final concentration of 10 U/ml, and the remaining 4 ml blood was transferred to a glass tube containing EDTA with final concentration of 15% EDTA. The erythrocytes were isolated from heparin-treated blood by centrifugation in 1500 rpm for 10 min and washed three times with phosphate-buffered saline (PBS) to remove plasma and buffy coat. The cell pellet was resuspended in PBS to make the final volume of 4 ml. The peptide was diluted to a concentration of 2 mg/ml and 0.1 mg/ml. The peptide was further diluted to the concentrations as stated in Table 15. For each tube PBS was added first, then RBCs and peptide solutions. The hematocrit in the blood treated with EDTA was determined after 30 min with Sysmex K-1000, and the resuspended RBCS were diluted into 10% hematocrit. RBCs in PBS (1%) with and without peptides (Table 15) were incubated in a shaker at 37° for 1 hour and then centrifuged at 4000 rpm for 5 min. The supernatant were carefully transferred to new polycarbonate tubes and the absorbance of the supernatant was measured at 540 nm. […]

[9] = tested on: Escherichia coli ATCC 25922; settings: for MBC E. coli: ATCC 25922; for bacteriostatic or bactericidal: in respect of E. coli, high MBC but low MIC indicates bacteriostatic
[10] = tested on: Staphylococcus aureus ATCC 25923; settings: ATCC 25923; remark: listed apart in the source
[11] = tested on: E. coli; assay: Electronmicrograph of treated bacteria; format: cell-based; settings: FIG. 2
Source text: FIG. 1 is an electronmicrograph of normal (untreated) E. coli, and
FIG. 2 is an electronmicrograph of E. coli treated with one of the peptides described herein, WRWRWR [SEQ ID NO:1].

Row | SMILES | MIC E. coli [3] | MIC S. aureus [4] | MIC MRSA [5] | MIC MRSE [6] | MIC P. aerug. [7] | also measured
1 | CC(C)(C)c1cc(C(C)(C)C)c2[nH]c(C(C)(C)C)c(C[C@H](N)C(=O)NCCCCN)c2c1 [H-Tbt-Dab-H] |  |  |  |  |  | MIC [1]: 35 µg/mL (≈ 79.1 µM); MIC [2]: 35 µg/mL (≈ 79.1 µM)
2 | CC(C)(C)c1cc(C(C)(C)C)c2[nH]c(C(C)(C)C)c(C[C@H](N)C(=O)NCCN)c2c1 [H-Tbt-Dae-H] |  |  |  |  |  | MIC [1]: 15 µg/mL (≈ 36.2 µM); MIC [2]: 15 µg/mL (≈ 36.2 µM)
3 | CC(C)(C)c1cc(C(C)(C)C)c2[nH]c(C(C)(C)C)c(C[C@H](N)C(=O)NCCCCCCN)c2c1 [H-Tbt-Dah-H] |  |  |  |  |  | MIC [1]: 15 µg/mL (≈ 31.9 µM); MIC [2]: 15 µg/mL (≈ 31.9 µM)
4 | NCCCC[C@H](N)C(=O)O[C@H](Cc1c[nH]c2ccccc12)C(=O)OCc1ccccc1 [Kψ(COO)wOBzl] |  |  |  |  |  | Minimum inhibitory concentration E. coli [3]: 150 µg/mL (≈ 354 µM); Minimum inhibitory concentration S. aureus [4]: 50 µg/mL (≈ 118 µM); Minimum inhibitory concentration MRSA [5]: 100 µg/mL (≈ 236 µM); Minimum inhibitory concentration MRSE [6]: 37.5 µg/mL (≈ 88.5 µM); Minimum inhibitory concentration P. aeruginosa [7]: 300 µg/mL (≈ 708 µM)
5 | COC(=O)[C@H](CCCNC(=N)N)NC(=O)[C@H](Cc1c(C(C)(C)C)[nH]c2c(C(C)(C)C)cc(C(C)(C)C)cc12)NC(=O)[C@@H](N)CCCNC(=N)N [RTbtR OMe, H-Arg-Tbt-Arg-OMe] | 25 µg/mL (≈ 35.8 µM) | 5 (5) μg/ml |  |  |  | haemolysis EC50 [8]: 720 µg/mL; MBC E. coli [9]: 50 µg/mL (≈ 71.5 µM); bacteriostatic or bactericidal [9]: bactericidal; MBC S. aureus [10]: 5 (5) μg/ml
6 | COC(=O)[C@H](CCCNC(=N)N)NC(=O)[C@@H](N)Cc1c(C(C)(C)C)[nH]c2c(C(C)(C)C)cc(C(C)(C)C)cc12 [TbtR OMe, H-Tbt-Arg-OMe] |  |  | 4.0 µg/mL (≈ 7.37 µM) | 4.0 µg/mL (≈ 7.37 µM) |  | haemolysis EC50 [8]: 360 µg/mL; MBC E. coli [9]: 200 µg/mL (≈ 368 µM); bacteriostatic or bactericidal [9]: bacteriostatic; MBC S. aureus [10]: 10 (10) μg/ml
7 | N=C(N)NCCC[C@H](NC(=O)[C@H](Cc1c[nH]c2ccccc12)NC(=O)[C@H](CCCNC(=N)N)NC(=O)[C@H](Cc1c[nH]c2ccccc12)NC(=O)[C@H](CCCNC(=N)N)NC(=O)[C@@H](N)Cc1c[nH]c2ccccc12)C(N)=O [WRWRWR] (H-WRWRWR-NH2) | 7.5 µg/mL (≈ 7.18 µM) | 7.5 µg/mL (≈ 7.18 µM) |  |  |  | appearance of treated E. coli in electronmicrograph [11]: void of cytoplasmic matter and their cell membranes (as well as cell wall components) are destroyed; MBC E. coli [9]: 15 µg/mL (≈ 14.4 µM); MBC S. aureus [10]: 10 µg/mL (≈ 9.58 µM)
8 | CC(C)(C)C[C@H](N)C(=O)N[C@@H](CCCNC(=N)N)C(=O)OCc1ccccc1 [tBuAR-OBzl] (H-[tBuAla]-Arg-OBn; N-terminus assumed) | >300.0 µg/mL | 300.0 µg/mL (≈ 766 µM) | 150 to 200 µg/mL | 100.0 µg/mL (≈ 255 µM) | >300.0 µg/mL | 
9 | CC(C)(C)c1ccc(C[C@H](N)C(=O)N[C@@H](CCCNC(=N)N)C(=O)OCc2ccccc2)cc1 [tBuFR-OBzl] (H-[Phe(4-tBu)]-Arg-OBn; N-terminus assumed) | 200.0 µg/mL (≈ 428 µM) | 25.0 µg/mL (≈ 53.5 µM) | 12.5 to 25 µg/mL | 5.0 µg/mL (≈ 10.7 µM) | 100.0 µg/mL (≈ 214 µM) | 
10 | COC(=O)[C@H](CCCNC(=N)N)NC(=O)[C@@H](N)Cc1ccc(C(C)(C)C)cc1 [tBuFR-OMe] (H-[Phe(4-tBu)]-Arg-OMe; N-terminus assumed) | >300.0 µg/mL | >300.0 µg/mL | 100.0 µg/mL (≈ 255 µM) | 100.0 µg/mL (≈ 255 µM) | >300.0 µg/mL | 
11 | CC(C)(C)[C@H](N)C(=O)N[C@@H](CCCNC(=N)N)C(=O)OCc1ccccc1 [tBuGR-OBzl] (H-[Tle]-Arg-OBn; N-terminus assumed) | >300.0 µg/mL | >300.0 µg/mL | 100.0 µg/mL (≈ 265 µM) | 150.0 µg/mL (≈ 397 µM) | >300.0 µg/mL | 
